Tests used:
Type in all cases: cell-based
HeLa cells [1] = assay: Crystal violet staining, colony formation, HeLa; details: after 12 days
Experimental: (§1) In order to assess the effects on cell growth and proliferation, various shRNA-expressing viable cells were counted. […] The cells were stained with CFSE and cell division was monitored. […] Further confirmation was obtained by plating equal numbers of HeLa cells expressing various shRNAs and determining the number and size of colonies after 12 days.
Crystal Violet Staining. 5×10^5 HeLa and 8×10^5 PA-1 cells were plated into six-well plates. 24 hours later cells were treated with different shRNA-expressing lentiviruses for 4 hours. Cells were washed and replenished with fresh warm medium. Twelve days later, cells were fixed in ice-cold methanol and stained with crystal violet to assess viability and colony formation.

caspase-8 = assay: Immunoblot of caspase-8 processing in transduced PA-1 cells; details: PA-1, 48 h post-transduction
Experimental: To gain insight into the mechanism underlying MADD-mediated cell survival, whether caspases were activated upon abrogation of MADD expression examined. HeLa cells and PA-1 cells were collected 48 h post-transduction and probed for caspase-8 and FADD, which are components of the DISC. […] TRAIL treatment results in recruitment of procaspase-8 to the receptors followed by its cleavage resulting in its activation. The cleaved intermediate fragments (p43/p41) and the catalytically active subunits of caspase-8 (p18) were detected upon TRAIL treatment. Caspase-8 is the initiator caspase that can cause activation of the effector caspase-3. A decrease in the amount of pro-caspase-3 indicates its cleavage to form active caspase-3 only in MADD-depleted cells.
Immunoblotting. The membranes were blocked in 5% non-fat dry milk in PBS-Tween (PBS with 0.05% Tween 20) for 1 hour. Primary antibodies were used at a concentration of 1 μg/mL and the secondary antibodies were used at a 1:10000 concentration. The blots were developed by enhanced chemiluminescence according to the manufacturer's protocol (Pierce Biotechnology Inc., Rockford, Ill.).

HeLa cells [2] = assay: CFSE dilution assay, HeLa; details: versus control
Experimental: Cell Growth. 24 hours post-transduction, HeLa cells were plated as described in materials and methods. Cells were then harvested and viable cells (trypan blue negative cells) were counted on indicated days. Data represent Mean+SD of triplicates. Cell proliferation. 24 hours post-transduction HeLa cells were stained with CF SE-red (SNARF-1 carboxylic acid, acetate, succinimidyl ester), harvested on indicated days and evaluated for CFSE-dilution by FACS. The numbers on the histograms indicate geometric peak mean intensities of CFSE staining in the transduced cells. Cell survival. Crystal violet staining of cells surviving upon IG20 down-modulation after transduction shown C-G.
as §1
CFSE Dilution Assay. 24 hours post-transduction, 5×10^5 HeLa or 8×10^5 PA-1 cells were stained with 2 μM SNARF-1 carboxylic acid, acetate, succinimidyl ester (S-22801, Molecular Probes, Invitrogen, CA) for 15 minutes at 37° C. […] Every other day, cells were collected, washed and CFSE dilution, as an indicator of cell division, was determined by FACS analysis.

MADD = assay: Phosphorylation of endogenous MADD in HeLa cells (anti-phospho antibodies); details: LY 10 μM 1 h, IGF-1 150 ng/ml 20 minutes
14-3-3 = assay: Association of endogenous MADD with 14-3-3 in HeLa cells (immunoprecipitation); details: LY 10 μM 1 h
Experimental: (A) Cellular distributions of wtMADD and MADD3A. HEK293 cells were transfected with wtMADD or MADD3A. 36 h after transfection, the cells were harvested and membrane andcytosolic fractions were prepared. Immunoblotting was performed using an anti-YFP antibody. Actin and caveolin-1 were used as loading controls. (B) […]. HEK293 cells were transfected with wtMADD or MADD3A. 36 h after transfection, the cells were harvested for immunoprecipitation using an anti-14-3-3 antibody followed by immunoblotting using an anti-YFP antibody for detecting exogenous MADD. The membrane was reprobed with an anti-14-3-3 antibody to show protein loading. (C) Inhibition of PI3K can lead to the association of wtMADD with 14-3-3. HEK293 cells were transfected with wtMADD. Cells were serum starved for 20 h and treated with LY (10 μM) for 1 h. Immunoprecipitation was performed using an anti-14-3-3 antibody, followed by immunoblotting using an anti-YFP or an anti-14-3-3 antibody. (D) Inhibition of Akt can result in the association of wtMADD with 14-3-3. HEK293 cells were co-transfected with wtMADD along with DN-Akt or pcDNA. […]
To explore the molecular mechanism by which nonphosphorylated MADD can trigger apoptosis, the cellular localization of phosphorylated and nonphosphorylated MADD was determined. […]
Immunoprecipitation. […] Immunoblots were prepared and analysed as described above.

Compound | Number of colonies (HeLa cells [1]) | Size of colonies (HeLa cells [1]) | Intermediate active-caspase-8 proteins (p43/41) (caspase-8) | CFSE-dilution with time (cell division) (HeLa cells [2]) | Phosphorylation of endogenous MADD (MADD) | Binding of endogenous MADD to 14-3-3 (14-3-3)
13L-shRNA: shRNA targeting exon 13L (IG20, MADD), 5′ CGGCGAATCTATGACAATC-3′ (SEQ ID NO: 4) | significantly fewer colonies | comparable to that of controls | higher amounts of the intermediate active-caspase-8 proteins (p43/41) | Lack of difference in CFSE-dilution |  | 
O=c1cc(N2CCOCC2)oc2c(-c3ccccc3)cccc12 [LY] |  |  |  |  | decreased considerably | could bind to 14-3-3 only in the presence, but not in the absence, of LY
